Legend:
potassium arsenate = compound: O=[As]([O-])(O)O.[K+] [potassium arsenate]; assay: thermal stability z-score vs DMSO; higher = more thermally stabilized by treatment; settings: HeLa; arsenate concentration 1 mM
Experimental: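 Cellular thermal proteome profiling in HeLa cells treated with 1 mM arsenate for 1 h (DMSO pretreatment), heated to ten temperatures (37-66.3 °C). Soluble protein was quantified by TMT mass spectrometry relative to DMSO controls; the thermal stability score was transformed to a z-score; mean of n = 3 experiments.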

lipoamide = compound: NC(=O)CCCCC1CCSS1 [lipoamide]; assay: as above; settings: HeLa, lipoamide concentration 100 µM
Experimental: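 Cellular thermal proteome profiling in HeLa cells. Cells were treated with 100 µM lipoamide for 1 h, with or without 1 mM arsenate for a further 1 h, then heated to ten temperatures (37-66.3 °C), and soluble protein was quantified by TMT mass spectrometry relative to 0.1% DMSO controls. The thermal stability score (sum of log2 fold changes minus the abundance score) was transformed to a z-score; mean of n = 3 experiments.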

[1] = arsenate co-treatment: 1 mM arsenate 1 h
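Also: each temperature applied for 3 min, abundance score taken as mean log2 fold change at the two lowest temperatures, z-score obtained by mean subtraction and division by SD.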

## C12ORF29 (UniProt Q8N999)
Potassium arsenate
  thermal stability z-score: -1.5
lipoamide; [1]
  thermal stability z-score: 0.423
lipoamide; arsenate co-treatment: none
  thermal stability z-score: -0.117

## ACLY (UniProt P53396)
Potassium arsenate
  thermal stability z-score: -0.944
lipoamide; [1]
  thermal stability z-score: 0.0389
lipoamide; arsenate co-treatment: none
  thermal stability z-score: -0.136

## PIN4 (UniProt Q9Y237)
Sequence of UniProt Q9Y237 (Q9Y237 whole entry): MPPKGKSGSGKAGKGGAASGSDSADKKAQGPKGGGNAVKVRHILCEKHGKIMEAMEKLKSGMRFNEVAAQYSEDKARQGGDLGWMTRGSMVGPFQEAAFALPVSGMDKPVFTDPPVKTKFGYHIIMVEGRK
Potassium arsenate
  thermal stability z-score: -0.422
lipoamide; [1]
  thermal stability z-score: 0.199
lipoamide; arsenate co-treatment: none
  thermal stability z-score: -0.0862

## CMPK1 (UniProt P30085)
Sequence of UniProt P30085 (P30085 whole entry): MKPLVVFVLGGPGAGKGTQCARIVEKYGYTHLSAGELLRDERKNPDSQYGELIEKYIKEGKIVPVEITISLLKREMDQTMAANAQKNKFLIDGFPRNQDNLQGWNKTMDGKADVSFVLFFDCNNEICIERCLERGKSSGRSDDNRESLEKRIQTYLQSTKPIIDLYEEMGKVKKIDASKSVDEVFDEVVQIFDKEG
Potassium arsenate
  thermal stability z-score: 2.02
lipoamide; [1]
  thermal stability z-score: -0.127
lipoamide; arsenate co-treatment: none
  thermal stability z-score: 0.136

## CBL (UniProt P22681)
Potassium arsenate
  thermal stability z-score: -0.368
lipoamide; [1]
  thermal stability z-score: 0.255
lipoamide; arsenate co-treatment: none
  thermal stability z-score: 0.154

## UBR5 (UniProt O95071)
Potassium arsenate
  thermal stability z-score: 1.13
lipoamide; [1]
  thermal stability z-score: -0.165
lipoamide; arsenate co-treatment: none
  thermal stability z-score: -0.0498

## CHM (UniProt P24386)
Potassium arsenate
  thermal stability z-score: -0.22
lipoamide; [1]
  thermal stability z-score: 0.191
lipoamide; arsenate co-treatment: none
  thermal stability z-score: 0.152

## FKBP3 (UniProt Q00688)
Sequence of UniProt Q00688 (Q00688 whole entry): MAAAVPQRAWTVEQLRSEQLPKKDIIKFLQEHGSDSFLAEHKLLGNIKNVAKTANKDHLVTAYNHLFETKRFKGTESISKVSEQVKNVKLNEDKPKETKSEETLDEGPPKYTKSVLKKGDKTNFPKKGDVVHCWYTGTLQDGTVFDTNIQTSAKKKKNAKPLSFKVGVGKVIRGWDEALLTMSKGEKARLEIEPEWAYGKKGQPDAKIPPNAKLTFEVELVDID
Potassium arsenate
  thermal stability z-score: -0.406
lipoamide; [1]
  thermal stability z-score: 0.676
lipoamide; arsenate co-treatment: none
  thermal stability z-score: 0.552

## PPP1CA (UniProt P62136)
Potassium arsenate
  thermal stability z-score: -0.971
lipoamide; [1]
  thermal stability z-score: 0.221
lipoamide; arsenate co-treatment: none
  thermal stability z-score: -0.27

## HAUS3 (UniProt Q68CZ6)
Potassium arsenate
  thermal stability z-score: -0.102
lipoamide; [1]
  thermal stability z-score: -0.112
lipoamide; arsenate co-treatment: none
  thermal stability z-score: -0.176

## NRAS (UniProt P01111)
Potassium arsenate
  thermal stability z-score: -0.271
lipoamide; [1]
  thermal stability z-score: 0.00516
lipoamide; arsenate co-treatment: none
  thermal stability z-score: -0.21

## C9ORF85 (UniProt Q96MD7)
Sequence of UniProt Q96MD7 (Q96MD7 whole entry): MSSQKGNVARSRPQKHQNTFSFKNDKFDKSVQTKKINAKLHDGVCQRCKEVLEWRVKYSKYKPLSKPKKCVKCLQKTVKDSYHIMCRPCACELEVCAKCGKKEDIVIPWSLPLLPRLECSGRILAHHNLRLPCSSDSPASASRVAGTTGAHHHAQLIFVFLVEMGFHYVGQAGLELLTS
Potassium arsenate
  thermal stability z-score: 0.132
lipoamide; [1]
  thermal stability z-score: 0.0672
lipoamide; arsenate co-treatment: none
  thermal stability z-score: 1.62

## ASCC3 (UniProt Q8N3C0)
Potassium arsenate
  thermal stability z-score: -0.277
lipoamide; [1]
  thermal stability z-score: -0.289
lipoamide; arsenate co-treatment: none
  thermal stability z-score: -0.167

## MTO1 (UniProt Q9Y2Z2)
Potassium arsenate
  thermal stability z-score: 1.97
lipoamide; [1]
  thermal stability z-score: 0.544
lipoamide; arsenate co-treatment: none
  thermal stability z-score: 0.263

## POLG (UniProt P54098)
Sequence of UniProt P54098 (P54098 whole entry): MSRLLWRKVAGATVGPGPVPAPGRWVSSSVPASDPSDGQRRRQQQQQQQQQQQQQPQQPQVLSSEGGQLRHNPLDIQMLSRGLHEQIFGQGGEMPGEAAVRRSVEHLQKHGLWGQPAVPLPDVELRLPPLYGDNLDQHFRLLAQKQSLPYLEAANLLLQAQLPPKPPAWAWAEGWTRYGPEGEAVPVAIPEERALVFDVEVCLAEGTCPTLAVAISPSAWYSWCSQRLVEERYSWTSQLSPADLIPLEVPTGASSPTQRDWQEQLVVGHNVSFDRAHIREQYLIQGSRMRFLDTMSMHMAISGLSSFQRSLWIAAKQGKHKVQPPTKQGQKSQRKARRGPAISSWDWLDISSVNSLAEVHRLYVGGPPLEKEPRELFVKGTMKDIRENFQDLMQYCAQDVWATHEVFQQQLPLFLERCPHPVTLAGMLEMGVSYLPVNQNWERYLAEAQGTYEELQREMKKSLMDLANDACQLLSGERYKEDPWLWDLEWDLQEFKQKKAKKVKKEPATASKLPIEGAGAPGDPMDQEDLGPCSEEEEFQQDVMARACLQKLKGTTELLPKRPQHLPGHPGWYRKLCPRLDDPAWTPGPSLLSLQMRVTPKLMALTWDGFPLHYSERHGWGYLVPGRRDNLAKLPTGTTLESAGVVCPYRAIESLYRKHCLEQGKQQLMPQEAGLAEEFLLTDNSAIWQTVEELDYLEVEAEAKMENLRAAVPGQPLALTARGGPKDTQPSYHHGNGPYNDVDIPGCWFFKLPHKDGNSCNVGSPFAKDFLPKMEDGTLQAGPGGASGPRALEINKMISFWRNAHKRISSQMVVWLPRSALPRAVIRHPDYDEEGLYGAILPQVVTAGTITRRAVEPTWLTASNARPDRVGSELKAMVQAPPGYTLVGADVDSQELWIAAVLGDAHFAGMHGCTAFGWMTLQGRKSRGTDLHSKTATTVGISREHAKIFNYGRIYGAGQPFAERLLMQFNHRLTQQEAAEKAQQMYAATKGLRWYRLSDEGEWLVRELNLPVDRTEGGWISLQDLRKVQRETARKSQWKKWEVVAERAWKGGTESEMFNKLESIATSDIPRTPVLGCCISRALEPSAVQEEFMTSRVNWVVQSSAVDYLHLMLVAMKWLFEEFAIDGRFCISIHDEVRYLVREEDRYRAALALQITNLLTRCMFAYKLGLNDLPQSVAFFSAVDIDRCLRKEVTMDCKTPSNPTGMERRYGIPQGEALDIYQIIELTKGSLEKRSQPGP
Potassium arsenate
  thermal stability z-score: 0.0154
lipoamide; [1]
  thermal stability z-score: 0.0493
lipoamide; arsenate co-treatment: none
  thermal stability z-score: 0.0533

## PSMD8 (UniProt P48556)
Potassium arsenate
  thermal stability z-score: -0.197
lipoamide; [1]
  thermal stability z-score: 0.814
lipoamide; arsenate co-treatment: none
  thermal stability z-score: 0.532

## AASDHPPT (UniProt Q9NRN7)
Sequence of UniProt Q9NRN7 (Q9NRN7 whole entry): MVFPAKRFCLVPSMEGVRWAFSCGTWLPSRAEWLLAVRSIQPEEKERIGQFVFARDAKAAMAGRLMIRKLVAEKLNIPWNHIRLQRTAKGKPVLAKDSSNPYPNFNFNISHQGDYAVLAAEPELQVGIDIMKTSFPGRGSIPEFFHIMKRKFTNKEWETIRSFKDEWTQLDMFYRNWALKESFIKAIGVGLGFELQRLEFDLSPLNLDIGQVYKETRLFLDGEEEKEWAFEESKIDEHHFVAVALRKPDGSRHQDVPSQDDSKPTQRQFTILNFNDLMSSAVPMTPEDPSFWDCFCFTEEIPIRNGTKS
Potassium arsenate
  thermal stability z-score: -0.589
lipoamide; [1]
  thermal stability z-score: 0.269
lipoamide; arsenate co-treatment: none
  thermal stability z-score: 0.269

## GOSR1 (UniProt O95249)
Potassium arsenate
  thermal stability z-score: -0.0465
lipoamide; [1]
  thermal stability z-score: 0.726
lipoamide; arsenate co-treatment: none
  thermal stability z-score: 0.473

## NF2 (UniProt P35240)
Sequence of UniProt P35240 (P35240 whole entry): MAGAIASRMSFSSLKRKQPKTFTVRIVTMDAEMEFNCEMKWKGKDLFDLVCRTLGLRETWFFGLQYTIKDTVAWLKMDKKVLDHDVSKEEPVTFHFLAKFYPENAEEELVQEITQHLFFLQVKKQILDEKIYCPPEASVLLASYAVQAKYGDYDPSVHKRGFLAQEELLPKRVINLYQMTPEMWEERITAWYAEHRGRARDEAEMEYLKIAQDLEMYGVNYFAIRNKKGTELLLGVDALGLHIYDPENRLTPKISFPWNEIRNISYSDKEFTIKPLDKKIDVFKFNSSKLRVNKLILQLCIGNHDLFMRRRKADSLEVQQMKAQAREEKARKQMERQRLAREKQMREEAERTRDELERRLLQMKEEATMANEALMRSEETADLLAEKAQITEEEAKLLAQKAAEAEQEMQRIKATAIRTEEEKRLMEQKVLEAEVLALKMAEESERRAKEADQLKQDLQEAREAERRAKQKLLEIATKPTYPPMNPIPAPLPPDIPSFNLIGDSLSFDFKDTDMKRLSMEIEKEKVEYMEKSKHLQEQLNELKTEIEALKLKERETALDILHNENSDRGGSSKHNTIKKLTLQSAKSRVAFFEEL
Potassium arsenate
  thermal stability z-score: -0.309
lipoamide; [1]
  thermal stability z-score: 0.402
lipoamide; arsenate co-treatment: none
  thermal stability z-score: 0.235

## NCS1 (UniProt P62166)
Sequence of UniProt P62166 (P62166 whole entry, looked up): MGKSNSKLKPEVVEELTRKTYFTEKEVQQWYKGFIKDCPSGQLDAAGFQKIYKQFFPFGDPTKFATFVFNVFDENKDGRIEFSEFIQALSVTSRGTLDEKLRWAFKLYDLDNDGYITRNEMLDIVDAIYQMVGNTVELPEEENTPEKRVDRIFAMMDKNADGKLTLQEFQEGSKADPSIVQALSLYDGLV
Potassium arsenate
  thermal stability z-score: -0.124
lipoamide; [1]
  thermal stability z-score: -0.202
lipoamide; arsenate co-treatment: none
  thermal stability z-score: -0.195

## PPP5C (UniProt P53041)
Potassium arsenate
  thermal stability z-score: 0.649
lipoamide; [1]
  thermal stability z-score: 0.859
lipoamide; arsenate co-treatment: none
  thermal stability z-score: 0.0455

## ZNF326 (UniProt Q5BKZ1)
Potassium arsenate
  thermal stability z-score: 0.0996
lipoamide; [1]
  thermal stability z-score: -0.0719
lipoamide; arsenate co-treatment: none
  thermal stability z-score: 0.0989

## CDK7 (UniProt P50613)
Potassium arsenate
  thermal stability z-score: -0.0106
lipoamide; [1]
  thermal stability z-score: -0.000906
lipoamide; arsenate co-treatment: none
  thermal stability z-score: -0.0377

## B3GALNT2 (UniProt Q8NCR0)
Potassium arsenate
  thermal stability z-score: -1.27
lipoamide; [1]
  thermal stability z-score: -0.788
lipoamide; arsenate co-treatment: none
  thermal stability z-score: -0.394

## SMARCA2 (UniProt P51531)
Potassium arsenate
  thermal stability z-score: -0.174
lipoamide; [1]
  thermal stability z-score: -0.0738
lipoamide; arsenate co-treatment: none
  thermal stability z-score: -0.0901

## CBX1 (UniProt P83916)
Sequence of UniProt P83916 (P83916 whole entry, looked up): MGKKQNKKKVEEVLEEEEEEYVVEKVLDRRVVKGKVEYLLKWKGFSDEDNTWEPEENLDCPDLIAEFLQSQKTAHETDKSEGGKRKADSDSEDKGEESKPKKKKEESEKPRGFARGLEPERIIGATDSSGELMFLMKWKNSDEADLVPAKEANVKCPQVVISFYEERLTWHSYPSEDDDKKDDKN
Potassium arsenate
  thermal stability z-score: 0.0814
lipoamide; [1]
  thermal stability z-score: 0.402
lipoamide; arsenate co-treatment: none
  thermal stability z-score: 0.214

## FHL1 (UniProt Q13642)
Potassium arsenate
  thermal stability z-score: -0.17
lipoamide; [1]
  thermal stability z-score: 0.358
lipoamide; arsenate co-treatment: none
  thermal stability z-score: 0.294

## PRRC2A (UniProt P48634)
Potassium arsenate
  thermal stability z-score: -0.13
lipoamide; [1]
  thermal stability z-score: 0.431
lipoamide; arsenate co-treatment: none
  thermal stability z-score: 0.205

## TRIM3 (UniProt O75382)
Potassium arsenate
  thermal stability z-score: -0.044
lipoamide; [1]
  thermal stability z-score: 0.012
lipoamide; arsenate co-treatment: none
  thermal stability z-score: 0.061

## ELP5 (UniProt Q8TE02)
Potassium arsenate
  thermal stability z-score: 0.489
lipoamide; [1]
  thermal stability z-score: -0.313
lipoamide; arsenate co-treatment: none
  thermal stability z-score: -0.364

## PDE1A (UniProt P54750)
Potassium arsenate
  thermal stability z-score: 1.05
lipoamide; [1]
  thermal stability z-score: 0.864
lipoamide; arsenate co-treatment: none
  thermal stability z-score: 1.23

## FASTKD2 (UniProt Q9NYY8)
Sequence of UniProt Q9NYY8 (Q9NYY8 whole entry): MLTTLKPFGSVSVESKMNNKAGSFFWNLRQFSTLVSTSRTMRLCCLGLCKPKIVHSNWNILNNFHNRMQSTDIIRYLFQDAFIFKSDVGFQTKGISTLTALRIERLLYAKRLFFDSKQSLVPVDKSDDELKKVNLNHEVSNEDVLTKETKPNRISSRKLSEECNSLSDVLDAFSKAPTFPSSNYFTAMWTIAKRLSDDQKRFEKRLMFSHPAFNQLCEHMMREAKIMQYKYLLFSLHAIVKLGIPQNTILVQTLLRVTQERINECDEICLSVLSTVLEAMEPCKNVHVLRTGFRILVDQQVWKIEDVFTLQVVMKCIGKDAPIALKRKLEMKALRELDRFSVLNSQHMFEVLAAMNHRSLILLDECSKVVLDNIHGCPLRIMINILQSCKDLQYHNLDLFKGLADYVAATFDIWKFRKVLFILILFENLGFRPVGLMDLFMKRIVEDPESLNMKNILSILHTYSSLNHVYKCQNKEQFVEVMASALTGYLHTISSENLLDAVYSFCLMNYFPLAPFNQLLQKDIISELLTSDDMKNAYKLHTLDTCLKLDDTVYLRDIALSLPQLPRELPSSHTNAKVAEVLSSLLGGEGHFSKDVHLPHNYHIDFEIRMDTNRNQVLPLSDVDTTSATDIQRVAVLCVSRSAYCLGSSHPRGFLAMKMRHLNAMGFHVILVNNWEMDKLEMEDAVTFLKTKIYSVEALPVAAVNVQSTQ
Potassium arsenate
  thermal stability z-score: 0.445
lipoamide; [1]
  thermal stability z-score: -0.22
lipoamide; arsenate co-treatment: none
  thermal stability z-score: 0.158

## JAK1 (UniProt P23458)
Potassium arsenate
  thermal stability z-score: 0.123
lipoamide; [1]
  thermal stability z-score: -0.359
lipoamide; arsenate co-treatment: none
  thermal stability z-score: 0.296

## MBD3 (UniProt O95983)
Potassium arsenate
  thermal stability z-score: -0.483
lipoamide; [1]
  thermal stability z-score: 0.379
lipoamide; arsenate co-treatment: none
  thermal stability z-score: 0.252

## RAB12 (UniProt Q6IQ22)
Potassium arsenate
  thermal stability z-score: 0.678
lipoamide; [1]
  thermal stability z-score: 1.06
lipoamide; arsenate co-treatment: none
  thermal stability z-score: 1.06

## TBCE (UniProt Q15813)
Potassium arsenate
  thermal stability z-score: -0.0811
lipoamide; [1]
  thermal stability z-score: -0.969
lipoamide; arsenate co-treatment: none
  thermal stability z-score: -0.354

## MARCKSL1 (UniProt P49006)
Potassium arsenate
  thermal stability z-score: 0.248
lipoamide; [1]
  thermal stability z-score: 0.667
lipoamide; arsenate co-treatment: none
  thermal stability z-score: 0.788

## PHB2 (UniProt Q99623)
Potassium arsenate
  thermal stability z-score: 0.108
lipoamide; [1]
  thermal stability z-score: 0.27
lipoamide; arsenate co-treatment: none
  thermal stability z-score: 0.289

## ZWINT (UniProt O95229)
Potassium arsenate
  thermal stability z-score: 0.0525
lipoamide; [1]
  thermal stability z-score: 0.0176
lipoamide; arsenate co-treatment: none
  thermal stability z-score: -0.0608

## FERMT1 (UniProt Q9BQL6)
Potassium arsenate
  thermal stability z-score: 1.07
lipoamide; [1]
  thermal stability z-score: 0.0116
lipoamide; arsenate co-treatment: none
  thermal stability z-score: 0.904

## GALK2 (UniProt Q01415)
Potassium arsenate
  thermal stability z-score: -0.778
lipoamide; [1]
  thermal stability z-score: 0.547
lipoamide; arsenate co-treatment: none
  thermal stability z-score: -0.155

## CKAP5 (UniProt Q14008)
Potassium arsenate
  thermal stability z-score: 0.286
lipoamide; [1]
  thermal stability z-score: -0.095
lipoamide; arsenate co-treatment: none
  thermal stability z-score: -0.0102

## SLBP (UniProt Q14493)
Potassium arsenate
  thermal stability z-score: -1.06
lipoamide; [1]
  thermal stability z-score: -0.736
lipoamide; arsenate co-treatment: none
  thermal stability z-score: 0.179

## DTL (UniProt Q9NZJ0)
Potassium arsenate
  thermal stability z-score: -0.408
lipoamide; [1]
  thermal stability z-score: -0.0028
lipoamide; arsenate co-treatment: none
  thermal stability z-score: -0.0193

## LENG1 (UniProt Q96BZ8)
Sequence of UniProt Q96BZ8 (Q96BZ8 whole entry): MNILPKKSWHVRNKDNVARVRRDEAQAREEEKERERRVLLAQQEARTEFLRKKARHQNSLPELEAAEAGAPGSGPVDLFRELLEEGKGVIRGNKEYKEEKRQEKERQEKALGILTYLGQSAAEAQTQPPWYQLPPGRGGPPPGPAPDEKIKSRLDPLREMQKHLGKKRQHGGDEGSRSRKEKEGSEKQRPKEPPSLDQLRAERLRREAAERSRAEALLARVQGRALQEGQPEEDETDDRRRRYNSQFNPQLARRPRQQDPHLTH
Potassium arsenate
  thermal stability z-score: 0.544
lipoamide; [1]
  thermal stability z-score: 0.493
lipoamide; arsenate co-treatment: none
  thermal stability z-score: 0.509

## ARHGEF18 (UniProt Q6ZSZ5)
Potassium arsenate
  thermal stability z-score: -0.0508
lipoamide; [1]
  thermal stability z-score: -0.0633
lipoamide; arsenate co-treatment: none
  thermal stability z-score: -0.00829

## PDIA6 (UniProt Q15084)
Sequence of UniProt Q15084 (Q15084 whole entry): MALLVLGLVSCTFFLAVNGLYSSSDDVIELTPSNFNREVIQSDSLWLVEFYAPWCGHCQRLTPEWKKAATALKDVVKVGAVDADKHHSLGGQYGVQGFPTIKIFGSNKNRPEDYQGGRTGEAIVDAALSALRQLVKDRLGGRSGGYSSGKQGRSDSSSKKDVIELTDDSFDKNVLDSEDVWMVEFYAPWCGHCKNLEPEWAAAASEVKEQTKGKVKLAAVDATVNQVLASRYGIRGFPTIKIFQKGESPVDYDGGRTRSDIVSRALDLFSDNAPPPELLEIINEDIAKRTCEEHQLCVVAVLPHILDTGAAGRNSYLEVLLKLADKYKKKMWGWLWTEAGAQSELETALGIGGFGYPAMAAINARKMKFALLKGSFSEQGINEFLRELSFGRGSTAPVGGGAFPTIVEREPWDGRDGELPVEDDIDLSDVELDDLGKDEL
Potassium arsenate
  thermal stability z-score: 0.475
lipoamide; [1]
  thermal stability z-score: -2.44
lipoamide; arsenate co-treatment: none
  thermal stability z-score: -1.84

## TLCD1 (UniProt Q96CP7)
Sequence of UniProt Q96CP7 (Q96CP7 whole entry): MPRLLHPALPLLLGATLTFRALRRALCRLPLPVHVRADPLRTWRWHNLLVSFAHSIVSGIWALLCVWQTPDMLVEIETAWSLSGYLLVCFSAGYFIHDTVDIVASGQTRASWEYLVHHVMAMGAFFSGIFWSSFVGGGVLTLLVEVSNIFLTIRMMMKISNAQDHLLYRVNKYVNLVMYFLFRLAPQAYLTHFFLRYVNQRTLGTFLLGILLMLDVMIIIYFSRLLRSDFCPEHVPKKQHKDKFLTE
Potassium arsenate
  thermal stability z-score: 0.587
lipoamide; [1]
  thermal stability z-score: -0.0961
lipoamide; arsenate co-treatment: none
  thermal stability z-score: -0.035

## NT5C (UniProt Q8TCD5)
Potassium arsenate
  thermal stability z-score: -0.982
lipoamide; [1]
  thermal stability z-score: -0.442
lipoamide; arsenate co-treatment: none
  thermal stability z-score: -0.516

## HARS2 (UniProt P49590)
Potassium arsenate
  thermal stability z-score: -0.0959
lipoamide; [1]
  thermal stability z-score: -0.108
lipoamide; arsenate co-treatment: none
  thermal stability z-score: -0.629

## HNRNPK (UniProt P61978)
Potassium arsenate
  thermal stability z-score: -1.69
lipoamide; [1]
  thermal stability z-score: -0.316
lipoamide; arsenate co-treatment: none
  thermal stability z-score: 0.559

## PPM1A (UniProt P35813)
Potassium arsenate
  thermal stability z-score: -0.154
lipoamide; [1]
  thermal stability z-score: 0.622
lipoamide; arsenate co-treatment: none
  thermal stability z-score: 0.096

## FAM162A (UniProt Q96A26)
Potassium arsenate
  thermal stability z-score: -0.244
lipoamide; [1]
  thermal stability z-score: 0.884
lipoamide; arsenate co-treatment: none
  thermal stability z-score: 0.302

## CORO1B (UniProt Q9BR76)
Potassium arsenate
  thermal stability z-score: -0.66
lipoamide; [1]
  thermal stability z-score: -0.396
lipoamide; arsenate co-treatment: none
  thermal stability z-score: -0.129

## SEC22B (UniProt O75396)
Potassium arsenate
  thermal stability z-score: -0.0449
lipoamide; [1]
  thermal stability z-score: -0.614
lipoamide; arsenate co-treatment: none
  thermal stability z-score: -0.0571

From the supplement of paper PMC12463676, “Small-molecule dissolution of stress granules by redox modulation benefits ALS models” (Nature Chemical Biology, 2025)
